# Reference: ChEMBL document CHEMBL1201862, “PubChem BioAssay data set” (2004)
# The source made the active and inactive calls.
# Legend:
# HEK293 [1] = assay: NOD2 signaling inhibitors in MDP-stimulated cells, cell-based, uHTS, luminescence (AID 2001); type: functional; settings: Homo sapiens
# [2] = CRF-BP/CRF-R2 complex antagonists, dose response, cell-based, uHTS hits, 384-well (AID 651639); type: functional, Homo sapiens; settings: read-out: IC50_Mean
# [3] = target: Nucleotide-binding oligomerization domain-containing protein 1 (Homo sapiens, UniProt Q9Y239); assay: NOD1 signaling inhibitors, SAR follow-up, revised (AID 2333); type: functional
# HEK293 [4] = assay: cells; type: functional, cell-based; settings: Homo sapiens
# [5] = NIH-3T3 fibroblast cytotoxicity, dose response, cytotoxicity control, cell-based, fluorescence, Alamar Blue, secondary assay (AID 2327); type: functional;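 note: NIH-3T3 mouse fibroblasts cultured with fluconazole at 8 µg/mL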
# [6] = target: T1, Corticotropin-releasing factor receptor 2/Corticotropin-releasing factor-binding protein (Homo sapiens, UniProt P24387+Q13324); assay: Dose Response confirmation of uHTS hits for small molecule antagonists of the CRF-binding protein and CRF-R2 receptor complex.; type: functional; settings: read-out: IC50_Mean
# T1 sequence (Q13324 whole entry): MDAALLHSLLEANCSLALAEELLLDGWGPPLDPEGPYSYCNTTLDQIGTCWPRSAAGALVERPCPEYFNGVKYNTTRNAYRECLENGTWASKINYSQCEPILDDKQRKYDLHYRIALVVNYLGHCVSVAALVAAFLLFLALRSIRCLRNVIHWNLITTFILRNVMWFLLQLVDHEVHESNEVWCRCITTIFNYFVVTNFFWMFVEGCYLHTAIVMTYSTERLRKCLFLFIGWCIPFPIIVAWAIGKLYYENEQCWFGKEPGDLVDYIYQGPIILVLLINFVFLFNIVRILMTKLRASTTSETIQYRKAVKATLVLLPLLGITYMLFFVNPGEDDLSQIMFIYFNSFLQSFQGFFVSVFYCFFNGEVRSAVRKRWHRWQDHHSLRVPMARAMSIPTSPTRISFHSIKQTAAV
# T1 sequence (P24387 whole entry): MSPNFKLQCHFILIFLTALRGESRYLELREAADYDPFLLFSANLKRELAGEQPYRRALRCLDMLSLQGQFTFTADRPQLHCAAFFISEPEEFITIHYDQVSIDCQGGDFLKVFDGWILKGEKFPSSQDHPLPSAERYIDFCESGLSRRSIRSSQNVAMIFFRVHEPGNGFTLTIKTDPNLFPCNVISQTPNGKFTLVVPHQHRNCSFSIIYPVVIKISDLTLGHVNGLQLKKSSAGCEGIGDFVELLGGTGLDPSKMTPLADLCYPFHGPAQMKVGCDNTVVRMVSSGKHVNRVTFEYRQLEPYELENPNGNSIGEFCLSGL
# [7] = target: T2, Carboxy-terminal domain RNA polymerase II polypeptide A small phosphatase 1 (Homo sapiens, UniProt Q9GZU7); assay: inhibitors of CTDSP1, concentration-response testing, biochemical assay, absorbance-based, actives from ultra-high-throughput screening (AID 540297); type: functional
# T2 sequence (Q9GZU7 whole entry): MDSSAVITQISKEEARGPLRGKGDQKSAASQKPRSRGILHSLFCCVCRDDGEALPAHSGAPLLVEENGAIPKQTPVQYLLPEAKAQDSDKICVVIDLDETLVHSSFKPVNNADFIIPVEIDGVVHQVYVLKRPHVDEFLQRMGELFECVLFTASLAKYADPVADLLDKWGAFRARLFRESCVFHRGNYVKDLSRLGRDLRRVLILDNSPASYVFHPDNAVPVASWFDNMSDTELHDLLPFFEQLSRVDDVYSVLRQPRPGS
# Tumor necrosis factor = Tumor necrosis factor (Homo sapiens, UniProt P01375); assay: TNFa-triggered NF-kB activation inhibitors, SAR follow-up, cell-based, revised (AID 2337); type: functional
# HEK293 [8] = assay: cells; type: functional, cell-based; settings: Homo sapiens; remark: listed apart in the source
# HEK293 [9] = assay: NOD1 signaling inhibitors, primary screen, cell-based, luminescence, uHTS (AID 1578); type: functional; settings: Homo sapiens
# Streptokinase A = target: T3, Streptokinase A (Streptococcus pyogenes serotype M1, UniProt P10520); assay: S. pyogenes streptokinase expression inhibitors, potency, dose response, plasminogen activation absorbance, OD405 (AID 1914); type: functional, Streptococcus pyogenes M1 GAS;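 note: secreted streptokinase activity via plasminogen activation per viability signal from cell pellet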
# T3 sequence (P10520 whole entry): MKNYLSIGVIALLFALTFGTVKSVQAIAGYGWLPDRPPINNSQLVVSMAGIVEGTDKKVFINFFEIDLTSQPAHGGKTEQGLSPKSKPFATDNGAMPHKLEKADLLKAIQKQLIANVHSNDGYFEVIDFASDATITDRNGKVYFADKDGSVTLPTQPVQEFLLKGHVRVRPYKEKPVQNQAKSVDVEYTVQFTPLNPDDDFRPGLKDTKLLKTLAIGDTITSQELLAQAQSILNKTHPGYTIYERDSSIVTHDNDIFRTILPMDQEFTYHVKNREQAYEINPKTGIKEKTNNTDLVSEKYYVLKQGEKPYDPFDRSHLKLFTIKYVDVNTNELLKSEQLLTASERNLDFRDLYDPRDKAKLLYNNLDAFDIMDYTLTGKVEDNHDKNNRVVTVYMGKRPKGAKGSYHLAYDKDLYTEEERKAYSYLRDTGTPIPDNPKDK
# [10] = C. albicans growth with fluconazole, confirmation, fluorescence, retest (AID 2467); type: functional, cell-based
# Streptococcus = assay: Group A Streptococcus viability loss, dose response, counter-screen for streptokinase expression inhibitor project, luminescence, BacTiterGlo (AID 1915); type: functional, organism-based;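 note: potency for reduction of bacterial viability or growth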
# [11] = target: Serine/threonine-protein phosphatase (Candida dubliniensis (strain CD36 / CBS 7987 / NCPF 3949 / NRRLY-17841) (Yeast), UniProt B9W6M3); assay: calcineurin pathway inhibitors in yeast reporter, dose response, S. cerevisiae, CDRE-lacZ, luminescence, secondary (AID 2388); type: functional, cell-based;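 note: yeast reporter cells carrying a calcineurin-responsive lacZ construct stimulated with calcium chloride; luminescent beta-galactosidase reporter signal in whole cells rather than isolated phosphatase activity; potency for inhibition where a drop in reporter signal means calcineurin blockade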
# [12] = system: Streptococcus sp. 'group A'; assay: growth inhibition of control SK(-) GAS strain, dose response, counter-screen for streptokinase expression inhibitor project, luminescence, kanamycin, BacTiterGlo, confirmation (AID 1900); type: functional, organism-based
# [13] = target: Nucleotide-binding oligomerization domain-containing protein 2 (Homo sapiens, UniProt Q9HC29); assay: PubChem AID 2334; type: functional
# HEK293 [14] = assay: cells; settings: Homo sapiens
# [15] = target: ATP-dependent molecular chaperone HSP82 (Candida albicans (strain WO-1) (Yeast), UniProt C4YTQ8); assay: loss of DOC-induced GRE-beta-galactosidase reporter signal, dose response, Hsp90 inhibitor project, S. cerevisiae, luminescence (AID 2400); type: functional, cell-based;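 note: beta-galactosidase luminescence from glucocorticoid response element reporter as proxy for Hsp90 function; inhibitor potency where signal loss means Hsp90 inhibition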
# [16] = target: T1, Corticotropin-releasing factor receptor 2/Corticotropin-releasing factor-binding protein; assay: activators of CRF receptor 2 with binding protein – uHTS hits, confirmation (AID 602473); type: functional; settings: read-out: EC50_Mean
# [17] = target: Beta-2 adrenergic receptor (Homo sapiens, UniProt P07550); assay: beta2AR agonists driving receptor internalization, dose response, cell-based, FAP fluorogen, flow cytometry, cherry pick 1 (AID 588763); type: functional
# [18] = target: T4, High affinity choline transporter 1 (Homo sapiens, UniProt Q9GZV3); assay: CHT inhibitors, dose response, cell-based, 5-point CRC, membrane potential dye (AID 504840); type: functional
# T4 sequence (Q9GZV3 whole entry): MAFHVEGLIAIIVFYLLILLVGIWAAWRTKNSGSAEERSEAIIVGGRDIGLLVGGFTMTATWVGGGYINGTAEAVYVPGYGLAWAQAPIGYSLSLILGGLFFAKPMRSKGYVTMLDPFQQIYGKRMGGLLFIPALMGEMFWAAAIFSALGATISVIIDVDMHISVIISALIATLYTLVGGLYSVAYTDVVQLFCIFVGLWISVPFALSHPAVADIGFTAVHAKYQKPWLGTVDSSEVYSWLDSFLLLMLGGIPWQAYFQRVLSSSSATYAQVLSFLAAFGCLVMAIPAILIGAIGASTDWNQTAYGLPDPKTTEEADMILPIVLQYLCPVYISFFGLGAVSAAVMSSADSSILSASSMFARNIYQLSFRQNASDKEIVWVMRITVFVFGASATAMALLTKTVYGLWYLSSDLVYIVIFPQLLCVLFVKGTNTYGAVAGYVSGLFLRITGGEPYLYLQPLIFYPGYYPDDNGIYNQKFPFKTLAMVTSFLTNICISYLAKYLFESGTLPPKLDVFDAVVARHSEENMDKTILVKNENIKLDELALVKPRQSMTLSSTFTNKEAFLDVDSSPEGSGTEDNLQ
# CHO = assay: cytotoxicity in TLR9-MyD88 CHO cells, dose response, cytotoxicity control for TLR9-MyD88 binding inhibitor project, cell-based, luminescence (AID 588339); type: functional, hamster; settings: Cricetulus griseus;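 note: CHO cells stably coexpressing TLR9 and MyD88 fusions from primary screen; compound exposure lasted 48 hours before viability readout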
# [19] = Shn3 3'UTR reporter inhibitors, dose response, cell-based, Clone20 osteoblasts, firefly luciferase, cherry-picked (AID 624132); type: functional;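 note: firefly luciferase luminescence from reporter carrying the Shn3 3'UTR in osteoblasts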
# [20] = target: DNA damage-inducible transcript 3 protein (Mus musculus, UniProt P35639); type: functional, Cricetulus griseus
# Beta Lactamase = Beta Lactamase (Pseudomonas aeruginosa, UniProt Q932Y6); assay: beta-lactamase reporter inhibitor potency, dose response, artefact control for TLR9-MyD88 binding inhibitor project, BLA reporter cells, FRET fluorescence (AID 588341); type: cell-based;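 note: cell based assay in CHO-K1 cells stably expressing beta-lactamase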
# [21] = HepG2 cell cytotoxicity, dose response, cytotoxicity control for Shn3 inhibitor project, CellTiter-Glo, cherry-picked (AID 624134); type: functional, cell-based
# [22] = control 3'UTR Renilla luciferase suppression, dose response, counter-screen for Shn3 inhibitor project, cell-based, Clone20-Shn3RL, cherry-picked (AID 624133); type: functional
# Vero = assay: Vero E6 cell cytotoxicity, dose response, cytotoxicity control (AID 540298); type: functional; settings: Chlorocebus sabaeus
# MDCK [23] = assay: MDCK cell cytotoxicity, dose response, cytotoxicity control (AID 540296); type: functional; settings: Canis lupus familiaris
# MDCK [24] = assay: antiviral activity against H1N1 influenza, dose response, cell-based, strain KY136 (AID 540257); type: functional; settings: Canis lupus familiaris
# Chain of Nucleotide-binding oligomerization domain-containing protein 2 (Q9HC29 whole entry, the tested form may be a part): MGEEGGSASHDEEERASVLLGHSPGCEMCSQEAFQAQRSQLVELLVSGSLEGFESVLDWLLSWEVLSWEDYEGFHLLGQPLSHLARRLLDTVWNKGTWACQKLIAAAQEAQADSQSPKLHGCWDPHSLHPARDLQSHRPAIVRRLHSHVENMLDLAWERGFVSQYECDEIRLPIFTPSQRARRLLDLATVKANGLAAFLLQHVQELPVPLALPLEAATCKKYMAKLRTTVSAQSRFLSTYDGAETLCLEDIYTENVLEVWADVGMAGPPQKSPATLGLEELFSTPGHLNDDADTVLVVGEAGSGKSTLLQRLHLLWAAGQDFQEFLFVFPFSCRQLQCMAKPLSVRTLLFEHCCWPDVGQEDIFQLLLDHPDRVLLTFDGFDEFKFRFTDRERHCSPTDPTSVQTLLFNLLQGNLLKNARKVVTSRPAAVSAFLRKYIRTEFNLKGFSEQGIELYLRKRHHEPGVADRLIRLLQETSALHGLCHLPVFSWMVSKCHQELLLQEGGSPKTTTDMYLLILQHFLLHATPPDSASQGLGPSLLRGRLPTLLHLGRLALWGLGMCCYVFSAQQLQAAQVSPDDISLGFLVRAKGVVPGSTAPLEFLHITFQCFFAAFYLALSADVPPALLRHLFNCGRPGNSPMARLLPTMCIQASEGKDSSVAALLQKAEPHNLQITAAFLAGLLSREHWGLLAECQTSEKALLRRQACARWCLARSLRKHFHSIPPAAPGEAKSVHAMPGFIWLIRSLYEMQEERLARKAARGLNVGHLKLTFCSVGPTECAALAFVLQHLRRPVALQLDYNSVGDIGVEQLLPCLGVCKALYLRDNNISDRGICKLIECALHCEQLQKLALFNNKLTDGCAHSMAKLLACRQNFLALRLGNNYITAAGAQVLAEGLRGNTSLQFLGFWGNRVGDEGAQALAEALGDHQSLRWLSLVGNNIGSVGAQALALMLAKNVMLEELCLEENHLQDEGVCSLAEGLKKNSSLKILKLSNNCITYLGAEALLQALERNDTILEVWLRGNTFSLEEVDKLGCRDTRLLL
# Chain of Beta-2 adrenergic receptor (P07550 whole entry): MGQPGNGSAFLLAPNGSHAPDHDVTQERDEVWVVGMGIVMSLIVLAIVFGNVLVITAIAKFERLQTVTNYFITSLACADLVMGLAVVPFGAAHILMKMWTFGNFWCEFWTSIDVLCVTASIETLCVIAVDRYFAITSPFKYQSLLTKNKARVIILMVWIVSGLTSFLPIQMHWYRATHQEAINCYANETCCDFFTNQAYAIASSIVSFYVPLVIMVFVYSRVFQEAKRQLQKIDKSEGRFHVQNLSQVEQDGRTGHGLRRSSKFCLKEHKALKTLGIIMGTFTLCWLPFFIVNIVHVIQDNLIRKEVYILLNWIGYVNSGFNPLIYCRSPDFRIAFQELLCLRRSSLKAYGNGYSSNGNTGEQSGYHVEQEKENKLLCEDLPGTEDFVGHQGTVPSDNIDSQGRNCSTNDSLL
# Chain of Beta Lactamase (Q932Y6 whole entry): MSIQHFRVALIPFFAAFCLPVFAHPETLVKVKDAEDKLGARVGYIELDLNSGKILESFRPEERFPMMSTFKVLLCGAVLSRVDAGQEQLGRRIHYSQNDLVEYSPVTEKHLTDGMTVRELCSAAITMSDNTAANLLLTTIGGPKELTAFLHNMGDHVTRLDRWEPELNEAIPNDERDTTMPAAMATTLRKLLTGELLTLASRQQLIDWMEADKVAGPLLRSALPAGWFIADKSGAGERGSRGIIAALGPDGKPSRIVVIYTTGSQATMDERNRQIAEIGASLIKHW
# Chain of Nucleotide-binding oligomerization domain-containing protein 1 (Q9Y239 whole entry, the tested form may be a part): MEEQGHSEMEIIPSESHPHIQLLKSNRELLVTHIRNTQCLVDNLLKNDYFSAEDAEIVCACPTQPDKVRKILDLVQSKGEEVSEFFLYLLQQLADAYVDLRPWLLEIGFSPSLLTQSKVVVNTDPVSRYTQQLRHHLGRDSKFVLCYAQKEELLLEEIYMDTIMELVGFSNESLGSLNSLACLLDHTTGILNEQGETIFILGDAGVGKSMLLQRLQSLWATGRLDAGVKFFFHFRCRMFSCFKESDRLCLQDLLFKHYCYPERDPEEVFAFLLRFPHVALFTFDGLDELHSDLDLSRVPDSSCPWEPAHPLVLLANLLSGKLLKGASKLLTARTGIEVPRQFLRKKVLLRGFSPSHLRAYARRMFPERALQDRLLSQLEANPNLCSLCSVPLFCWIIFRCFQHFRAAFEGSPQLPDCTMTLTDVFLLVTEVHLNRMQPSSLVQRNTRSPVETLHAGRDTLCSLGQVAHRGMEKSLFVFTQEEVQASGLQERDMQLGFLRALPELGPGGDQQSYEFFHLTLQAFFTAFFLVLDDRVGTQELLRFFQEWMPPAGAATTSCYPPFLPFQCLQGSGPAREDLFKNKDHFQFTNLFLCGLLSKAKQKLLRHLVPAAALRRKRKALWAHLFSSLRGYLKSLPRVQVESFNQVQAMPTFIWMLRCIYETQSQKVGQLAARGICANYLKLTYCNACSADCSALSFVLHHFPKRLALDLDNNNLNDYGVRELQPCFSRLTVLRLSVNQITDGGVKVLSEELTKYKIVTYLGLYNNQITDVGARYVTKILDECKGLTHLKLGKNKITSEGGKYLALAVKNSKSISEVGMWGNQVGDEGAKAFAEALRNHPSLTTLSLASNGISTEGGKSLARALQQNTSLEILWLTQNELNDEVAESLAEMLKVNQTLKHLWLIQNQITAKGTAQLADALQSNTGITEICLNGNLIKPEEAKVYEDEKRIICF
# Chain of ATP-dependent molecular chaperone HSP82 (C4YTQ8 whole entry): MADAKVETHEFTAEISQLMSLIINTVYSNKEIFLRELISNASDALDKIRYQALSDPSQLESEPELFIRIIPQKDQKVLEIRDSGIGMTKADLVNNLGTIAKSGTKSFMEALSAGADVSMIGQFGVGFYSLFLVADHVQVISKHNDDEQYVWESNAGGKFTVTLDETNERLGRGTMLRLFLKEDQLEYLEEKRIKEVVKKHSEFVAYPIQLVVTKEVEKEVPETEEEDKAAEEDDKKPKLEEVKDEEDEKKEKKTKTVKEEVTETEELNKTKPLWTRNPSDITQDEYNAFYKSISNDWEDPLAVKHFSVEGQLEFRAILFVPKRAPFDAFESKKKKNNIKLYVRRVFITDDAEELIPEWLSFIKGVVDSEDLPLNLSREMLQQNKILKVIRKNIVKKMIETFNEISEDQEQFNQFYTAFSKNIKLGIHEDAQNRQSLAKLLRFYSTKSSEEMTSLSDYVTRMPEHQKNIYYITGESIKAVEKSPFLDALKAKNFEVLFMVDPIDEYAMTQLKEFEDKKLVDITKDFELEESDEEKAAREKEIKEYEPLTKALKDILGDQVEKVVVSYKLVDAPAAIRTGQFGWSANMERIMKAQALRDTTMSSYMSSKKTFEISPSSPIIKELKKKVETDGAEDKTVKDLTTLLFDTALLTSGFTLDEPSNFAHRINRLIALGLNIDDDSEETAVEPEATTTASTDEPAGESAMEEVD
# Chain of DNA damage-inducible transcript 3 protein (P35639 whole entry): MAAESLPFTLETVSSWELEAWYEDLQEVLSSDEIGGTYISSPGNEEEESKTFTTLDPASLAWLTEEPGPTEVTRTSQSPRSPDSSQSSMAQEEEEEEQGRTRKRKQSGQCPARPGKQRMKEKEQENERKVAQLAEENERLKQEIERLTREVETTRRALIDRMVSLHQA
# Chain of Tumor necrosis factor (P01375 whole entry): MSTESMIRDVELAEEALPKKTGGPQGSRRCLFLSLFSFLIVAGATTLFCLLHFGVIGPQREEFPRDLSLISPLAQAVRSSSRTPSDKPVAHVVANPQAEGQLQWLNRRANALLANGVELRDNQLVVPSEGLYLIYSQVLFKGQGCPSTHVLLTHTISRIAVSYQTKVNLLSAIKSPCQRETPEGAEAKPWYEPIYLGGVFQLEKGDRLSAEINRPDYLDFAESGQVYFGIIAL
# Chain of Serine/threonine-protein phosphatase (B9W6M3 whole entry): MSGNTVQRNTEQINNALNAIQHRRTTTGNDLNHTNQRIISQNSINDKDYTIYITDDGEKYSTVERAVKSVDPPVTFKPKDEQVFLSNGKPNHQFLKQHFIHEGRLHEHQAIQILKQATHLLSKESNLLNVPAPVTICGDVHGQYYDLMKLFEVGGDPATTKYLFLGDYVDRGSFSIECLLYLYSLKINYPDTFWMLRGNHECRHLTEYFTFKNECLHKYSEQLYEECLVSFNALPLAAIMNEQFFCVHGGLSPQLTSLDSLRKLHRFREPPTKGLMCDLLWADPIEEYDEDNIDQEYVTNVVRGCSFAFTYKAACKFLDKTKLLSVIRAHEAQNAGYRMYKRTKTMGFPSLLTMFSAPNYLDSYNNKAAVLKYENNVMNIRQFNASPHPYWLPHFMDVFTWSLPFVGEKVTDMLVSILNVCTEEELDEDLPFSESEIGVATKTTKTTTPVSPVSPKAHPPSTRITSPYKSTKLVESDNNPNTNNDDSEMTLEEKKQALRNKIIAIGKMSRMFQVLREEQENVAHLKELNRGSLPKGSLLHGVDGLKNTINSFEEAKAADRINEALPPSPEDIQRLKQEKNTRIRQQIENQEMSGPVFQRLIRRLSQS
smiles,measurement,setting,value
O=[N+]([O-])c1ccc(O)c(Nc2ncnc3ccc(Br)cc23)c1,IC50,HEK293 [1],18.8 µM (inactive)
same,IC50,[2],> 20 µM (inactive)
same,IC50,[3],2.15 µM (active)
same,IC50,HEK293 [4],> 20 µM (inactive)
same,EC50,[5],> 160 µM (inactive)
same,IC50,[6],5.76 µM (active)
same,IC50,[7],5.46 µM (active)
same,IC50,Tumor necrosis factor,6.28 µM (active)
same,IC50,HEK293 [8],> 20 µM (inactive)
same,EC50,HEK293 [9],2.64 µM (active)
same,EC50,Streptokinase A,> 150 µM (not active)
same,EC50,[10],0.429 µM (active)
same,EC50,Streptococcus,46.2 µM (active)
same,EC50,[11],> 180 µM (inactive)
same,EC50,[12],6.15 µM (active)
same,IC50,[13],3.53 µM (active)
same,IC50,HEK293 [14],> 20 µM (inactive)
same,EC50,[15],> 160 µM (inactive)
same,EC50,[16],5.78 µM (active)
COc1ccc(CN2CCC(Oc3ccc(C(=O)N4CCCCC4)cc3)CC2)cc1C,EC50,[17],25.3 µM (inactive)
CCOC(=O)c1nc(S(C)(=O)=O)ncc1Cl,IC50,[18],19.1 µM (active)
same,IC50,CHO,5.62 µM (active)
same,AC50,[19],6.37 µM (active)
same,Absolute IC50 (CHOP),[20],10 µM
same,IC50,Beta Lactamase,22.4 µM (inactive)
same,AC50,[21],35.4 µM (active)
same,AC50,[22],20.5 µM (active)
Cc1ccccc1NC(=O)/C(=C/c1ccco1)c1ccccc1,CC50,Vero,> 40 µM (active)
same,CC50,MDCK [23],> 40 µM (active)
same,IC50,MDCK [24],15.4 µM (active)
